Data taken from patent publication US20190231893A1, “METHODS OF TREATING CANCER” (priority 2017, published 2019).
“Also recorded” adds a separate entry of the source. Square brackets hold non-standard residues; d marks the D form. Peptide text beside a SMILES is read from it. * marks the point of attachment. Dolaproine = CO[C@@H]([C@@H]1CCCN1)[C@@H](C)C(=O)O; Dil = CC[C@H](C)[C@H](NC)[C@@H](CC(=O)O)OC; X1 = C[C@@H](N*)[C@@H](O)c1ccccc1; NMeV = CN[C@H](C(=O)O)C(C)C

What was measured:
A431 cells = test: Drug matrix screen: siRNA knockdown and cell viability; assay type: cell-based; conditions: for shift in drug sensitivity (cell viability) upon siRNA knockdown of γ-tubulin ring complex genes: knockdown of GCNT1, TUBGCP4 and TUBGCP6 relative to CON3 siRNA control, at drug concentrations yielding <60% cell viability; for drug sensitivity / cell killing upon EGFR siRNA knockdown: EGFR siRNA control
Description: An siRNA library was produced based targeting genes identified from methods listed above. The siRNA panel in 96 well plates (Dharmacon) was diluted to 66 nM/15 μl was combined with equal volume of RNAiMax Lipofectamine (Life Technologies) diluted to 0.15×/15 μl, pipette mixed thoroughly then allowed to incubate for 15 minutes at room temperature before addition of 30 μl/well to A431, U87MG_del, and U87MG_EGFR cell lines seeded in 96 well plates at 4500 cells/70 μl/well. Plates were incubated in 37° C. 5% CO2 incubator for 18-24 hours prior to addition of 10 μl drug (MMAE: 1.5 nM final conc., depatuxizumab mafodotin: 18 nM final conc.) or vehicle (phosphate-buffered saline, PBS). Cell viability was assessed post 48 hour drug treatment via Cell Titer Glo (Promega) for A431 cell line or SRB cell stain assay (Sulforhodamine B assay and Chemosensitivity, Voigt et al.) for U87MG_del2.7 and U87MG_EGFR cell lines following recommended protocols with the following exception: media was aspirated off Cell Titer Glo (CTG) plates and 100 μl 1:5 diluted CTG in PBS added per well, covered with foil, rotated to mix 15 minutes prior to reading on Victor chemilluminescent reader. The assay was performed using triplicate plates per drug/vehicle as well as last row of plate contained control siRNA CON3 incubated with vehicle to control for any plate effect. Each plate also contained a row of positive and negative siRNA controls treated with drug for normalization of effects of siRNA KD within and across plates. Effect of siRNA KD assessed via combination of triplicate reactions per siRNA/drug normalized to CON3 siRNA/PBS control and then normalized to CON3 siRNA/drug to determine shift to drug with siRNA KD.
A protocol similar to high-throughput screen was used, except siRNA was loaded in a 3×6 well matrix in a 96 well plate with the following siRNAs (CON3, GCNT1, TUBGCP4, TUBGCP6) per quarter plate. EGFR siRNA was loaded in exterior rows as a control. Drug was diluted to 5 serial-5 dilutions (MMAE, Vincristine, Paclitaxel) or 5 serial 3-dilutions (depatuxizumab mafodotin) along with no drug control and added to triplicate wells (starting concentrations MMAE: 100 nM; Vincristine: 2000 nM; Paclitaxel: 2000 nM; depatuxizumab mafodotin: 99 nM).

[1] = system: glioblastoma with EGFR amplification; test: Phase 1 study M12-356 (NCT01800695), tumor response; assay type: in vivo, human; conditions: patients with EGFR-amplified rGBM; FIG. 1
Description: In a Phase 1 study (M12-356, NCT01800695) of depatuxizumab mafodotin in patients with newly diagnosed glioblastoma (nGBM) and recurrent glioblastoma (rGBM) with EGFR amplification, responses in patients with rGBM correlated with EGFR amplification in pre-treatment, archival tumor tissue. Gene amplification was determined by fluorescence in situ hybridization (FISH). Two probes were used: locus-specific EGFR probe and chromosome enumeration probe (CEP) 7. FIG. 1 illustrates change in tumor size in patients with EGFR-amplified rGBM.
Tumor samples for study were from biopsies taken prior to entry onto depatuxizumab mafodotin trial M12-356 (NCT01800695). M12-356 is an open-label, phase 1, 3-arm study: Arm A (depatuxizumab mafodotin+radiation/temozolomide (TMZ) in newly diagnosed GBM; Arm B (depatuxizumab mafodotin+TMZ in newly diagnosed GBM as adjuvant therapy, or in recurrent GBM); and Arm C (depatuxizumab mafodotin monotherapy in recurrent GBM). Arms B and C had and expansion cohort in subjects with centrally confirmed EGFR amplified recurrent GBM.

Molecule	shift in drug sensitivity (cell viability) upon siRNA knockdown of γ-tubulin ring complex genes (A431 cells; FIG. 3)	shift in drug sensitivity (cell viability) upon siRNA knockdown of γ-tubulin ring complex genes (A431 cells; FIG. 3, listed as vincristine)	drug sensitivity / cell killing upon EGFR siRNA knockdown (A431 cells; FIG. 3)	drug sensitivity / cell killing upon EGFR siRNA knockdown (A431 cells; FIG. 3, listed as depatux-m)	shift in drug sensitivity (cell viability) upon siRNA knockdown of γ-tubulin ring complex genes (A431 cells; FIG. 3, listed as depatux-m)	clinical response (change in tumor size) [1]
CC(=O)O[C@H]1C(=O)[C@@]2(C)[C@H]([C@H](OC(=O)c3ccccc3)[C@]3(O)C[C@H](OC(=O)[C@H](O)[C@@H](NC(=O)c4ccccc4)c4ccccc4)C(C)=C1C3(C)C)[C@]1(OC(C)=O)CO[C@@H]1C[C@@H]2O [Paclitaxel]	no additional shift in sensitivity					
CC[C@]1(O)C[C@H]2CN(CCc3c([nH]c4ccccc34)[C@@](C(=O)OC)(c3cc4c(cc3OC)N(C=O)[C@H]3[C@@](O)(C(=O)OC)[C@H](OC(C)=O)[C@]5(CC)C=CCN6CC[C@]43[C@@H]65)C2)C1 [Vincristine]	increased sensitivity	impacted sensitivity; also recorded: more sensitive				
CC[C@H](C)[C@@H]([C@@H](CC(=O)N1CCC[C@H]1[C@H](OC)[C@@H](C)C(=O)N[C@H](C)[C@@H](O)c1ccccc1)OC)N(C)C(=O)[C@@H](NC(=O)[C@@H](NC)C(C)C)C(C)C [MMAE, monomethyl auristatin E] (H-[NMeV]V[Dil][Dolaproine]-X1)	impacted sensitivity; also recorded: more sensitive; also recorded: increased sensitivity					
depatuxizumab mafodotin	increased sensitivity		loss of drug sensitivity	abrogated drug internalization and cell killing	impacted sensitivity; also recorded: more sensitive; also recorded: sensitization	not all patients with EGFR amplification responded
